Assay results published in patent US20110065581A1, “Liquid Compositions Containing S-(+)-Abscisic Acid in Combination with Selected Lipophilic Agents and Methods of their Preparation” (priority 2007, published 2011).
Where a name gives a salt, the structure may show the parent alone.

Experiments:
Rutgers Tomato = test: Relative suppression effect of selective S-(+)-ABA formulations on Rutgers Tomato (regression); type: in vivo; conditions: treatment at 100 ppm
Protocol: (§1) Seedlings of Rutgers Tomato were sprayed with 4 ml water or treatment solution at the 3-4 leaf stage and held under well watered conditions in a greenhouse. Transpiration was measured daily for 3 days after treatment with a LiCor 1600 porometer. Transpiration readings were converted to percent of control to compensate for daily differences due to environmental factors like light intensity, humidity, and temperature.

Rutgers tomato seedlings = test: Transpiration rate of Rutgers tomato seedlings after foliar spray (LiCor 1600 porometer); type: in vivo; conditions: for Transpiration rate as a percentage of control, Average of days 1, 2, and 3 after treatment: average of days 1-3
Protocol: as §1

[1] = cited from earlier work

SMILES: CC1=CC(=O)CC(C)(C)[C@@]1(O)/C=C/C(C)=C\C(=O)O [ABA, ammonium salt of (S)-(+)-abscisic acid]
- Equivalent to s-ABA (ppm) ABA (ppm) (Rutgers Tomato; Rutgers Tomato, regression): 100 ppm
- Log[ABA] (Rutgers Tomato; log of equivalent s-ABA ppm): 2.00
- (Regression) Calculated Enhancement (Rutgers Tomato; relative to 100 ppm ABA): 1.00
- Transpiration rate as a percentage of the transpiration rate of control plants, 1 day after treatment (Rutgers tomato seedlings; 75 ppm spray, 4 ml, 3-4 leaf stage): 91%
- Transpiration rate as a percentage of the transpiration rate of control plants, 2 days after treatment (Rutgers tomato seedlings; 75 ppm spray): 94%
- Transpiration rate as a percentage of the transpiration rate of control plants, 3 days after treatment (Rutgers tomato seedlings; 75 ppm spray): 72%
- Transpiration rate as a percentage of control, Average of days 1, 2, and 3 after treatment (Rutgers tomato seedlings; 75 ppm spray): 86%
- Transpiration rate as a percentage of the transpiration rate of control plants, 1 day after treatment (Rutgers tomato seedlings; 250 ppm spray): 72%
- Transpiration rate as a percentage of the transpiration rate of control plants, 2 days after treatment (Rutgers tomato seedlings; 250 ppm spray): 102%
- Transpiration rate as a percentage of the transpiration rate of control plants, 3 days after treatment (Rutgers tomato seedlings; 250 ppm spray): 75%
- Transpiration rate as a percentage of control, Average of days 1, 2, and 3 after treatment (Rutgers tomato seedlings; 250 ppm spray): 83%
- Transpiration rate as a percentage of the transpiration rate of control plants, 1 day after treatment (Rutgers tomato seedlings; 750 ppm spray): 60%
- Transpiration rate as a percentage of the transpiration rate of control plants, 2 days after treatment (Rutgers tomato seedlings; 750 ppm spray): 83%
- Transpiration rate as a percentage of the transpiration rate of control plants, 3 days after treatment (Rutgers tomato seedlings; 750 ppm spray): 68%
- Transpiration rate as a percentage of control, Average of days 1, 2, and 3 after treatment (Rutgers tomato seedlings; 750 ppm spray): 70%
- Transpiration rate as a percentage of the transpiration rate of control plants, 1 day after treatment (Rutgers tomato seedlings; 2500 ppm spray): 36%
- Transpiration rate as a percentage of the transpiration rate of control plants, 2 days after treatment (Rutgers tomato seedlings; 2500 ppm spray): 35%
- Transpiration rate as a percentage of the transpiration rate of control plants, 3 days after treatment (Rutgers tomato seedlings; 2500 ppm spray): 43%
- Transpiration rate as a percentage of control, Average of days 1, 2, and 3 after treatment (Rutgers tomato seedlings; 2500 ppm spray): 38%
- Effect of spraying on transpiration (in words) (Rutgers tomato seedlings; Rutgers tomato seedlings, spray): reduced transpiration in a dose dependant manner

SMILES: CC1=CC(=O)CC(C)(C)[C@@]1(O)/C=C/C(C)=C\C(=O)O [abscisic acid, S-(+)-abscisic acid]
- solubility in hard water (in words) ([1]; hard water, compared with pure water): even less
- highest concentration that can be achieved in pure water ([1]; pure water at room temperature): about 3000 ppm
- water solubility ([1]; water at 24° C.): ~3 grams/1000 mL
